Measured values reported in patent US20240317776A1, “SOLID FORMS OF 4-(3,3-DIFLUORO-2,2-DIMETHYL-PROPANOYL)-3,5-DIHYDRO-2H-PYRIDO[3,4-F][1,4]OXAZEPINE-9-CARBONITRILE” (Denali Therapeutics Inc., priority 2022, published 2024).

Legend:
Type in all cases: physicochemical
[1] = 24-Hrs solubility in pH buffers; details: for Final Form: 24 hrs
Description: 24-Hrs solubility of Form A was measured in pH buffers (i.e., pH 2.0, 4.0, 6.0, 7.0, 8.0) at RT. Solids were suspended in pH buffers with target conc. of ˜10 mg/mL.

[2] = Dynamic vapor sorption (DVS)
Description: DVS was measured via a SMS (Surface Measurement Systems) DVS Intrinsic. The relative humidity at 25° C. were calibrated against deliquescence point of LiCl, Mg(NO3)2 and KCl.
(onset temperature). Considering the low TGA weight loss and single sharp DSC endotherm, Form A was postulated to be an anhydrate. […] The HPLC purity of starting material was measured as 99.78 area % (see chromatogram of FIG. 6) and the impurity summary is listed in Table 2.

[3] = Physical and chemical stability of solid on storage (XRPD, HPLC purity)
Description: To evaluate the physical and chemical stability, Compound (1) Form A was stored in 3 conditions (40° C./75% RH; 25° C./60% RH; and 60° C.) for one and four weeks.

[4] = Solution stability in pH buffers; details: 37° C.
Description: Solution stability study was performed in pH 2.0/4.0/6.0/7.0 (24 hrs) and pH 8.0 (24 hrs and 96 hrs) buffers. Solids were dissolved with pH buffers with target conc. of ˜0.5 mg/ml to form clear solutions and stored at 37° C. for 24 hrs or 96 hrs.

[5] = Kinetic solubility in bio-relevant media and H2O; details: for Final Form: 37° C.
Description: Solids were suspended in FaSSIF, FeSSIF, SGF and H2O with target conc. of ˜10 mg/mL. The suspensions were agitated on a rolling incubator at 25 rpm (in the incubator set at 37° C.) for 1, 4 and 24 hrs. At each time point, 1 mL of the suspension was pipetted out for centrifugation at 15000 rpm (3 min) and filtration through 0.45 μm membrane to obtain supernatant for HPLC solubility and pH tests, the residual solids were analyzed by XRPD.

[6] = all conditions (40° C./75% RH, 25° C./60% RH, 60° C.; one and four weeks)
[7] = pH 7.0 (50 mM Phosphate), 24 hrs
[8] = pH 8.0 (50 mM Phosphate), 24 hrs
[9] = pH 8.0 (50 mM Phosphate), 96 hrs

Which Final Form ([1]; pH 2.0 (50 mM HCl—KCl)) does the source give for `CC(C)(C(=O)N1CCOc2c(C#N)cncc2C1)C(F)F` [Form A, 4-(3,3-difluoro-2,2-dimethyl-propanoyl)-3,5-dihydro-2H-pyrido[3,4-f][1,4]oxazepine-9-carbonitrile] here?
The Final Form was “Form A”.

What about the Final Form ([1]; pH 4.0 (50 mM Citrate)) of the same compound?
Its Final Form is “Form A”.

And the Final Form ([1]; pH 6.0 (50 mM Citrate))?
The Final Form was “Form A”.

And the Final Form ([1]; pH 7.0 (50 mM Phosphate))?
The Final Form was “Form A”.

And the Final Form ([1]; pH 8.0 (50 mM Phosphate))?
Its Final Form is “Form A”.

And the “form change after equilibrium solubility evaluation (XRPD)” value ([1]; pH buffers)?
The value was “no form change”.

What about the “water uptake (DVS)” value ([2]; 25° C./80% RH) of the same compound?
The value was 0.024%.

What about the “form change after DVS test (XRPD)” value ([2]; after DVS test) of the same compound?
The value was “no form change”.

And the “API (RRT 1.00)” value ([3]; 1 week, 25° C./60% RH)?
Its value is 99.92 % Area.

And the Description ([3]; 1 week, 25° C./60% RH)?
The Description was “White powder”.

And the “Final Form” value ([3]; 1 week, 25° C./60% RH)?
Its value is “Form A”.

What about the “Imp.1 (RRT 0.68)” value ([3]; 1 week, 25° C./60% RH) of the same compound?
Its value is 0.08 % Area.

What about the “Purity vs. initial (%)” value ([3]; 1 week, 25° C./60% RH) of the same compound?
Its value is 100.0%.

And the “API (RRT 1.00)” value ([3]; 1 week, 40° C./75% RH)?
The value was 99.89 % Area.

What about the Description ([3]; 1 week, 40° C./75% RH) of the same compound?
Its Description is “White powder”.

And the “Final Form” value ([3]; 1 week, 40° C./75% RH)?
The value was “Form A”.

And the “Imp.1 (RRT 0.68)” value ([3]; 1 week, 40° C./75% RH)?
The value was 0.11 % Area.

What about the “Purity vs. initial (%)” value ([3]; 1 week, 40° C./75% RH) of the same compound?
Its value is 100.0%.

And the “API (RRT 1.00)” value ([3]; 1 week, 60° C.)?
The value was 99.90 % Area.

And the Description ([3]; 1 week, 60° C.)?
The Description was “White powder”.

And the “Final Form” value ([3]; 1 week, 60° C.)?
Its value is “Form A”.

And the “Imp.1 (RRT 0.68)” value ([3]; 1 week, 60° C.)?
The value was 0.10 % Area.

What about the “Purity vs. initial (%)” value ([3]; 1 week, 60° C.) of the same compound?
Its value is 100.0%.

What about the “API (RRT 1.00)” value ([3]; 4 weeks, 25° C./60% RH) of the same compound?
The value was 99.90 % Area.

And the Description ([3]; 4 weeks, 25° C./60% RH)?
The Description was “White powder”.

And the “Final Form” value ([3]; 4 weeks, 25° C./60% RH)?
Its value is “Form A”.

What about the “Imp.1 (RRT 0.68)” value ([3]; 4 weeks, 25° C./60% RH) of the same compound?
The value was 0.10 % Area.

What about the “Purity vs. initial (%)” value ([3]; 4 weeks, 25° C./60% RH) of the same compound?
The value was 100.0%.

And the “API (RRT 1.00)” value ([3]; 4 weeks, 40° C./75% RH)?
The value was 99.90 % Area.

And the Description ([3]; 4 weeks, 40° C./75% RH)?
The Description was “White powder”.

What about the “Final Form” value ([3]; 4 weeks, 40° C./75% RH) of the same compound?
The value was “Form A”.

What about the “Imp.1 (RRT 0.68)” value ([3]; 4 weeks, 40° C./75% RH) of the same compound?
Its value is 0.10 % Area.

And the “Purity vs. initial (%)” value ([3]; 4 weeks, 40° C./75% RH)?
The value was 100.0%.

And the “API (RRT 1.00)” value ([3]; 4 weeks, 60° C.)?
Its value is 99.90 % Area.

And the Description ([3]; 4 weeks, 60° C.)?
Its Description is “White powder”.

And the “Final Form” value ([3]; 4 weeks, 60° C.)?
Its value is “Form A”.

And the “Imp.1 (RRT 0.68)” value ([3]; 4 weeks, 60° C.)?
The value was 0.10 % Area.

What about the “Purity vs. initial (%)” value ([3]; 4 weeks, 60° C.) of the same compound?
The value was 100.0%.

What about the “HPLC purity change on storage” value [3, 6] of the same compound?
Its value is “no obvious HPLC purity change”.

What about the “form change on storage (XRPD)” value [3, 6] of the same compound?
Its value is “no form change”.

And the “API (RRT 1.00)” value ([4]; pH 2.0 (50 mM HCl—KCl), 24 hrs)?
The value was 84.93 % Area.

And the “Imp. 1 (RRT 0.66)” value ([4]; pH 2.0 (50 mM HCl—KCl), 24 hrs)?
Its value is 0.15 % Area.

And the “Imp. 1 (RRT 0.70)” value ([4]; pH 2.0 (50 mM HCl—KCl), 24 hrs)?
The value was 0.67 % Area.

And the “Imp. 1 (RRT 0.76)” value ([4]; pH 2.0 (50 mM HCl—KCl), 24 hrs)?
The value was 14.25 % Area.

And the “Imp. 1 (RRT 1.05)” value ([4]; pH 2.0 (50 mM HCl—KCl), 24 hrs)?
Its value is “— (—: <0.05 area %)”.

And the “Purity vs. initial (%)” value ([4]; pH 2.0 (50 mM HCl—KCl), 24 hrs)?
The value was 85.1%.

And the degradation in solution ([4]; pH 2.0 and pH 4.0 buffers, 24 hrs)?
The degradation in solution was “Degradation was observed”.

And the “API (RRT 1.00)” value ([4]; pH 4.0 (50 mM Citrate), 24 hrs)?
Its value is 98.42 % Area.

And the “Imp. 1 (RRT 0.66)” value ([4]; pH 4.0 (50 mM Citrate), 24 hrs)?
The value was 0.15 % Area.

What about the “Imp. 1 (RRT 0.70)” value ([4]; pH 4.0 (50 mM Citrate), 24 hrs) of the same compound?
The value was “— (—: <0.05 area %)”.

What about the “Imp. 1 (RRT 0.76)” value ([4]; pH 4.0 (50 mM Citrate), 24 hrs) of the same compound?
Its value is 0.38 % Area.

And the “Imp. 1 (RRT 1.05)” value ([4]; pH 4.0 (50 mM Citrate), 24 hrs)?
The value was 0.06 % Area.

What about the “Purity vs. initial (%)” value ([4]; pH 4.0 (50 mM Citrate), 24 hrs) of the same compound?
Its value is 98.5%.

And the “API (RRT 1.00)” value ([4]; pH 6.0 (50 mM Citrate), 24 hrs)?
Its value is 99.75 % Area.

And the “Imp. 1 (RRT 0.66)” value ([4]; pH 6.0 (50 mM Citrate), 24 hrs)?
Its value is 0.13 % Area.

What about the “Imp. 1 (RRT 0.70)” value ([4]; pH 6.0 (50 mM Citrate), 24 hrs) of the same compound?
The value was “— (—: <0.05 area %)”.

And the “Imp. 1 (RRT 0.76)” value ([4]; pH 6.0 (50 mM Citrate), 24 hrs)?
The value was 0.06 % Area.

And the “Imp. 1 (RRT 1.05)” value ([4]; pH 6.0 (50 mM Citrate), 24 hrs)?
The value was 0.06 % Area.

What about the “Purity vs. initial (%)” value ([4]; pH 6.0 (50 mM Citrate), 24 hrs) of the same compound?
Its value is 99.8%.

What about the “API (RRT 1.00)” value [4, 7] of the same compound?
Its value is 99.78 % Area.

What about the “Imp. 1 (RRT 0.66)” value [4, 7] of the same compound?
Its value is 0.15 % Area.

What about the “Imp. 1 (RRT 0.70)” value [4, 7] of the same compound?
The value was “— (—: <0.05 area %)”.

What about the “Imp. 1 (RRT 0.76)” value [4, 7] of the same compound?
Its value is “— (—: <0.05 area %)”.

And the “Imp. 1 (RRT 1.05)” value [4, 7]?
Its value is 0.07 % Area.

What about the “Purity vs. initial (%)” value [4, 7] of the same compound?
Its value is 99.9%.

And the “API (RRT 1.00)” value [4, 8]?
Its value is 99.81 % Area.

And the “Imp. 1 (RRT 0.66)” value [4, 8]?
Its value is 0.13 % Area.

What about the “Imp. 1 (RRT 0.70)” value [4, 8] of the same compound?
Its value is “— (—: <0.05 area %)”.

And the “Imp. 1 (RRT 0.76)” value [4, 8]?
Its value is “— (—: <0.05 area %)”.

And the “Imp. 1 (RRT 1.05)” value [4, 8]?
Its value is 0.06 % Area.

And the “Purity vs. initial (%)” value [4, 8]?
The value was 100.0%.

What about the “API (RRT 1.00)” value [4, 9] of the same compound?
Its value is 99.83 % Area.

And the “Imp. 1 (RRT 0.66)” value [4, 9]?
The value was 0.13 % Area.

What about the “Imp. 1 (RRT 0.70)” value [4, 9] of the same compound?
Its value is “— (—: <0.05 area %)”.

What about the “Imp. 1 (RRT 0.76)” value [4, 9] of the same compound?
Its value is “— (—: <0.05 area %)”.

What about the “Imp. 1 (RRT 1.05)” value [4, 9] of the same compound?
Its value is 0.04 % Area.

And the “Purity vs. initial (%)” value [4, 9]?
The value was 100.0%.

And the “Final Form” value ([5]; FaSSIF (pH 6.5), 1 hr)?
Its value is “Form A”.

What about the “Final Form” value ([5]; FaSSIF (pH 6.5), 4 hr) of the same compound?
The value was “Form A”.

What about the “Final Form” value ([5]; FaSSIF (pH 6.5), 24 hr) of the same compound?
The value was “Form A”.

What about the “Final Form” value ([5]; FeSSIF (pH 5.0), 1 hr) of the same compound?
Its value is “Form A”.

And the “Final Form” value ([5]; FeSSIF (pH 5.0), 4 hr)?
Its value is “Form A”.

And the “Final Form” value ([5]; FeSSIF (pH 5.0), 24 hr)?
The value was “Form A”.

And the “Final Form” value ([5]; H2O (pH 6.5), 1 hr)?
The value was “Form A”.

What about the “Final Form” value ([5]; H2O (pH 6.5), 4 hr) of the same compound?
Its value is “Form A”.

And the “Final Form” value ([5]; H2O (pH 6.5), 24 hr)?
Its value is “Form A”.

What about the “Final Form” value ([5]; SGF (pH 1.8), 1 hr) of the same compound?
Its value is “Form A”.

What about the “Final Form” value ([5]; SGF (pH 1.8), 4 hr) of the same compound?
Its value is “Form A”.

What about the “Final Form” value ([5]; SGF (pH 1.8), 24 hr) of the same compound?
The value was “Form A”.

And the “form change after kinetic solubility test (XRPD)” value ([5]; bio-relevant media or H2O)?
Its value is “No form change”.
